Results from patent US20260092086A1, “ANTIMICROBIAL LASSO PEPTIDES” (priority 2022, published 2026).
Converted amounts (≈) assume the structure as drawn. “And” between values parts separate entries of the source, which are not always exact repeats. Equal entries are not always repeated. “Also recorded” adds a separate entry of the source. Where a SMILES comes first, the peptide text is derived from it.

What was measured:
[1] = system: Enterobacter ludwigii MGH216; test: Spot-on-lawn assay in M63 agar, clinical isolate; assay type: cell-based; settings: reliably susceptible in at least three biological replicates
Description: Cloacaenodin was evaluated against several common laboratory strains as well as commercially acquired strains using a spot-on-lawn assay.^45 Strains were streaked out onto LB agar plates and incubated overnight at their recommended temperatures. A single colony was then used to inoculate an overnight culture in 5 mL of LB broth. After shaking at 250 rpm at the recommended temperature for each strain, 50 μL of the overnight culture was used to inoculate 5 mL of LB broth (volume ratio 1:100). These cultures were grown for a few hours until they reached the exponential phase (OD600˜0.4-0.6) before being added to 10 mL of soft M63 agar at a final cell density of 10^7 CFUs/mL, or 10^8 CFUs total in 10 mL. The M63 soft agar was composed of 2 g/L of (NH4)2SO4 (EMD MilliporeSigma), 13.6 g/L of KH2PO4 (Fisher), 40 mg/L of each of the 20 common amino acids, 0.2% glucose (Sigma), 0.00005% w/v thiamine hydrochloride (Sigma), and 0.65% w/v bacteriological-grade agar (Apex Bioresearch). […] Upon solidification, 10 μL of purified cloacaenodin in water at two-fold dilutions were then spotted onto the agar and allowed to dry. The plates were incubated overnight at the strains' recommended temperatures and analyzed the next morning for activity. The MIC is defined as the last dilution where a spot was visible. […]

[2] = system: clinical isolates of Enterobacter; test: Spot-on-lawn assay, panel of clinical isolates (Table 7); assay type: cell-based
Description: The type strain of Enterobacter cloacae (ATCC 13047) tested as discussed above was isolated from human cerebrospinal fluid in 1890^66 before the era of antibiotics. The activity of cloacaenodin was also tested against more recent clinical isolates. A panel of two (2) clinical isolates of Enterobacter using the spot-on-lawn assay was tested (Table 7).
Cloacaenodin was evaluated against several common laboratory strains as well as commercially acquired strains using a spot-on-lawn assay.^45 Strains were streaked out onto LB agar plates and incubated overnight at their recommended temperatures. A single colony was then used to inoculate an overnight culture in 5 mL of LB broth. After shaking at 250 rpm at the recommended temperature for each strain, 50 μL of the overnight culture was used to inoculate 5 mL of LB broth (volume ratio 1:100). These cultures were grown for a few hours until they reached the exponential phase (OD600˜0.4-0.6) before being added to 10 mL of soft M63 agar at a final cell density of 10^7 CFUs/mL, or 10^8 CFUs total in 10 mL. […] The plates were incubated overnight at the strains' recommended temperatures and analyzed the next morning for activity. […]

[3] = system: Enterobacter nimipressuralis DSM 18955; assay type: cell-based
[4] = system: Enterobacter ludwigii MGH216; assay type: cell-based
[5] = system: Enterobacter cloacae; test: Microscopy of cells treated with sub-MIC cloacaenodin; assay type: cell-based; settings: sub-MIC cloacaenodin (230 nM), 16 hours in M63 media
Description: After a 96-well plate of E. cloacae grew for 16 hours at 30° C. with varying concentrations of cloacaenodin in M63 media, samples were imaged using a Zeiss Observer Z1 automated inverted microscope with a cage incubator kept at 37° C. The microscope was used with a 100× Zeiss chroma objective with oil immersion and 35 ms exposure transmitted light and controlled using SlideBook software. Images were viewed using the software ImageJ.

[6] = 18 μM in pure water, 37° C., 72 hours (3 days)
Description: A 200 μL sample of purified ˜18 μM cloacaenodin in water was incubated at 37° C. for 72 hours. 30 μL of the sample was injected on LC-MS at 24-hour increments.

[7] = Heating assay at 95° C., LC-MS; assay type: physicochemical; settings: 1.5 hours
Description: The threaded nature of the collected cloacaenodin sample was next sought to be verified, because the threaded structure is crucial to the bioactivity of lasso peptides.^50 Heat treatment of certain lasso peptides leads to their unthreading: the unthreaded species often elutes differently than the threaded peptide.^48,49 We performed a heating assay at 95° C. and noticed that after 1.5 hours ˜5% of cloacaenodin eluted at around 12.4 min instead of 10.5 min (FIGS. 7A-7B). Upon treatment with carboxypeptidase^48,49, this later eluting peak was eliminated, and various earlier-eluting peaks consistent with C-terminal truncations of 6, 9, or 10 amino acids were then observed. These truncations were not observed for the unheated cloacaenodin sample when treated with carboxypeptidase (FIGS. 7A-8B). […] This unthreaded variant in the extract may have formed because of thermal unthreading during expression and purification, exposure to organic solvents during purification, or both. To ensure that the sample we collected from the HPLC remained stable, we froze the sample immediately upon collection until lyophilization, such that the peptide was minimally kept in solution.

[8] = target: T1, Thermolysin (Geobacillus stearothermophilus, UniProt P43133); test: Protease digestion, thermolysin; assay type: in vitro ADME; settings: 50 μM peptide, 30° C., about 1 hour, LC-MS
T1 construct: purchased Sigma-Aldrich
Description: Thermolysin from Geobacillus stearothermophilus (Sigma-Aldrich) was first resuspended in 50 mM Tris, 0.5 mM CaCl2). The enzyme was then added to 50 μM peptide samples at a final concentration of about 0.04 mg/mL in a buffer of 50 mM Tris, 0.5 mM CaCl2), pH 8. The reactions were then allowed to incubate at 30° C. for about 1 hour before quenching with 1% formic acid. An aliquot was then injected onto LC-MS for analysis.

[9] = Stability of NMR sample kept at 4° C., LC-MS before and after acquisition; assay type: physicochemical; settings: 95:5 H2O:D2O
Description: The structure of cloacaenodin in water was determined using two-dimensional (2D) nuclear magnetic resonance (NMR) analysis, a technique that has been successfully used to show the threaded shape of lasso peptides.^51 The possibility of cloacaenodin unthreading during the NMR acquisition was addressed by keeping the sample at 4° C. throughout acquisition. […] As an additional control, one-dimensional (1D) NMR spectra were acquired in between each 2D NMR spectrum acquisition to ensure stability of the sample (FIG. 12).
NMR studies were performed at the Princeton University Department of Chemistry NMR Facilities using a Bruker Avance III HD 800 MHz NMR spectrometer. Purified cloacaenodin was prepared at a concentration of 6.7 mg/mL (2.6 mM) in 95:5 H2O:D2O. The NMR spectra were acquired at 4° C. to minimize any cloacaenodin unthreading. A ^1H-^1H TOCSY spectrum at a mixing time of 80 ms was acquired, as well as 1H-1H NOESY spectra at 150 ms and 300 ms. Water suppression was used in the collection of all NMR data. To verify that the lasso peptide was not undergoing unthreading, 1D 1H NMR data were collected in between each 2D NMR acquisition and analyzed to see that the 1D spectra stayed consistent. […]

T1 sequence (P43133 236-551): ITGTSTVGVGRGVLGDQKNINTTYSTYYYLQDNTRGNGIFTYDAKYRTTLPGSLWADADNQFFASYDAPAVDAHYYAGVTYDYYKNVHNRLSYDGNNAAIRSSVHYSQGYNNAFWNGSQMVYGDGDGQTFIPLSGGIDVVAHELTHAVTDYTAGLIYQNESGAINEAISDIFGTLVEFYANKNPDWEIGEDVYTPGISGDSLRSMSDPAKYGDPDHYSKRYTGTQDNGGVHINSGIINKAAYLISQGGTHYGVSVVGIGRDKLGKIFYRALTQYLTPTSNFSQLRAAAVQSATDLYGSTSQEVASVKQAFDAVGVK

Structure (SMILES): CC[C@H](C)[C@@H]1NC(=O)[C@H](CCCNC(=N)N)NC(=O)[C@H](CC(=O)O)NC(=O)[C@H](C(C)C)NC(=O)[C@H](CO)NC(=O)[C@H](Cc2c[nH]cn2)NC(=O)CNC(=O)CC[C@@H](C(=O)N[C@@H](Cc2ccc(O)cc2)C(=O)N[C@@H](Cc2ccccc2)C(=O)NCC(=O)N2CCC[C@H]2C(=O)N2CCC[C@H]2C(=O)NCC(=O)N[C@@H](CC(C)C)C(=O)N2CCC[C@H]2C(=O)NCC(=O)N2CCC[C@H]2C(=O)N[C@H](C(=O)N[C@@H](CC(C)C)C(=O)N[C@@H](Cc2ccccc2)C(=O)N[C@@H](Cc2ccc(O)cc2)C(=O)N[C@@H](CO)C(=O)O)C(C)C)NC(=O)[C@@H]2CCCN2C1=O [cloacaenodin] (HELM PEPTIDE1{G.H.S.V.D.R.I.P.E.Y.F.G.P.P.G.L.P.G.P.V.L.F.Y.S}$PEPTIDE1,PEPTIDE1,1:R1-9:R3$$$V2.0; C-terminus assumed)
- strain susceptible to cloacaenodin [1]: * MGH216
- minimal inhibitory concentration (MIC) ([2]; six of the clinical isolates, three classified as carbapenem resistant): low micromolar
- antimicrobial activity ([2]; the other clinical isolates of Table 7): either weak or no activity
- MIC in M63 media [3]: 0.94 µM (≈ 2.43 µg/mL)
- MIC in M63 media [4]: 0.23 µM (≈ 0.594 µg/mL)
- filamentation phenotype [5]: degree of filamentation; also recorded: filamentation phenotype
- fraction remaining threaded (relative peak area on LC-MS) [6]: ~83% and > 80%
- fraction eluting as later (unthreaded) peak after heating [7]: ~5%
- proteolysis by thermolysin ([8]; listed as Threaded cloacaenodin): resistant to thermolysin digestion
- proteolysis by thermolysin ([8]; listed as threaded cloacaenodin): remained resistant to proteolysis
- threaded state after NMR acquisition [9]: remained threaded
